In patent publication US9364462B2, “Alpha-1-adrenergic receptor agonist therapy” (The Regents of the University of California, priority 2012, dated 2016):

Legend:
neurons in brain slices = assay: Adult mouse brain slices injured with H2O2 ex vivo; assay type: cell-based; settings: H2O2, 2 h
Experimental: FIG. 13. Brain slice model to study alpha-1A agonist in vitro. Thin brain slices were injured with hydrogen peroxide (H2O2), which simulates most forms of ischemic and traumatic injury at the cell level, in the presence or absence of A61603. After 2 hr, dead neurons (PI) and living neurons (ATP) were measured.
FIG. 14. A61603 protects neurons in brain slices from oxidative injury in vitro. Slices were treated with H2O2 or vehicle (Veh) for 2 hr, in the presence of A61603, or absence (Veh).
Studies were conducted in mice looking at alpha-1 agonist therapy, using A61603, in a model of traumatic brain injury. Alpha-1-ARs are 10 times more abundant in neurons than in cardiac myocytes, and the alpha-1A subtype is the most abundant. […]
Alpha-1A-adrenergic receptors (α1A-ARs) have a protective trophic role in the heart. α1A-AR levels are high in the brain, and neuroprotection by norepinephrine is known. […] Ex vivo, we quantified ATP levels (marker for survival) in mouse brain slices injured by 10μ, M H2O2 and treated for 2 h with A61603 (a1A-AR specific agonist) or Vehicle. We quantified the number of dead neurons (propidium iodide (PI) positive) out of total (NeuN positive) in the same treated slices by immunohistochemistry (IHC). In vivo, we measured brain infarct size (BrdU-positive glial cells) after transient focal ischemia and reperfusion (IR) in α1ABKO and WT mice. […]

α1A receptors = settings: cited from earlier work
[1] = Doxorubicin cardiomyopathy model in adult mice; assay type: in vivo, mouse
Experimental: FIG. 6. A61603 prevents doxorubicin cardiomyopathy. DOX was given to adult mice in a single intraperitoneal dose of 25 mg/kg. A61603 was infused subcutaneously (osmotic minipump) for 1 week (top left). We monitored mouse survival over the week, and at the end of 1 week measured heart cell damage and function.
In summary, the alpha-1A agonist A61603 is protective and adaptive in cardiac muscle cells in vitro and in vivo. […] A61603 protects against mortality and cardiomyopathy, by preventing cell death and fibrosis. We chose a model of cardiomyopathy caused by a cancer drug, the anthracycline doxorubicin (DOX). Cancer drug cardiotoxicity is a common and growing problem. We used the same protocol that tested A61603 BP and signaling effects (FIG. 5).

cardiac myocytes = assay: Cardiac cell protective and adaptive (anabolic) effects in vitro, comparison of alpha-1-agonists; assay type: cell-based; settings: neonatal rat and adult mouse cardiac myocytes, FIG. 1-3
[2] = Pressure overload cardiomyopathy (transverse aortic constriction, TAC) model; assay type: in vivo, mouse
Source text: FIG. 7. A61603 rescues pressure overload cardiomyopathy. Mice had echo 2 weeks after TAC, at which time they were randomized to treatment with A61603, at the same low dose, or vehicle. Fractional shortening, an index of cardiac function, was depressed by TAC, and improved with A61603, but not with vehicle.
FIG. 8. A61603 in pressure overload cardiomyopathy improves growth and protection, and reduces fibrosis.
Studies in mice looking at alpha-1 agonist therapy, using A61603, in a model of heart failure due to pressure overload (transverse aortic constriction model). A model of pressure overload was tested for 2 reasons: (1) test generality of A61603 effects in different types of cardiomyopathy; and (2) test treatment (rescue), rather than prevention, i.e. A61603 given at an interval of time after injury, when cardiomyopathy was already manifest. We used an adult mouse model of transverse aortic constriction (TAC), with the aorta surgically narrowed, so that the heart had to pump against an increased pressure (pressure overload). […] A61603 treatment rescued the cardiomyopathy, as measured by heart function (FIG. 7). […] Thus improvement in function caused by A61603 was again due to direct effects on cardiac muscle cells. The alpha-1A agonist A61603 at a low dose rescues (e.g. treats) cardiomyopathy due to pressure overload, an injury that simulates several types of cardiac disease, and the mechanism is improvement of cardiac myocytes.

[3] = 1 week subcutaneous infusion (osmotic minipump) in adult mice: BP and heart signaling; assay type: in vivo, mouse
Experimental: FIG. 5. A61603 activates heart signaling at a BP-neutral dose. A61603 was infused subcutaneously (osmotic minipump) for 1 week in adult mice, and BP was measured daily. There was no change in average BP at the low dose, in agreement with the intravenous (IV) route in another study, and with phenylephrine (PE) given in humans (left side). BP effects of A61603 are absent in the alpha-1A KO (AKO), again showing the selectivity of the drug for that receptor (left). At the end of 1 week, the heart was removed to measure ERK activation, and increases in heart mRNAs and area (size), reflecting protective (ERK) adaptive (mRNAs, area) effects on heart muscle cells. A61603 at the low dose of 10 ng/kg/d increased these endpoints.
The classic effect of alpha-1-agonists is to increase BP by stimulating smooth muscle cells to contract. It could be a disadvantage in heart failure (HF) therapy to increase BP excessively. On the other hand, all current recommended drugs in HF reduce BP, and a drug that increased BP slightly might have a strong therapeutic advantage. […] The foregoing experiments provided the rationale to test treatment with A61603 at 10 ng/kg/d in a mouse model of cardiomyopathy and HF.

CS(=O)(=O)Nc1c(O)ccc2c1CCCC2C1=NCCN1 (stereo not shown) [A61603, N-[1-(4,5-dihydro-1H-imidazol-2-yl)-6-hydroxy-tetralin-5-yl]methanesulfonamide]
ATP levels after H2O2 (neurons in brain slices; N=2, vehicle 5.5±0.5): 8±1 nmol/mg protein | number of dead neurons caused by H2O2 (PI positive out of total NeuN positive) (neurons in brain slices; N=2, vehicle 86±5.3): 46±0.3 | potency at α1A receptors relative to α1B or α1D sites (α1A receptors; Knepper et al. (1995)): at least 35 fold | potency as α1A AR agonist relative to phenylephrine, methoxamine and midodrine (α1A receptors): more potent | survival after DOX ([1]; DOX 25 mg/kg ip single dose, A61603 sc infusion 1 week, vs vehicle): markedly improved | cell death by apoptosis (caspase 3/7 activity and TUNEL staining) ([1]; after DOX, end of 1 week): improved | cell death by necrosis (serum CK, creatine kinase) ([1]; after DOX, end of 1 week): improved | indices of myocardial fibrosis ([1]; after DOX, end of 1 week): improved | protective effect on survival in alpha-1A knockout (KO) ([1]; alpha-1A KO mice after DOX): lost | heart function by echocardiography (fractional shortening) ([1]; surviving mice, end of 1 week): improved | potency and efficacy relative to several other alpha-1-agonists (cardiac myocytes): more potent (i.e. worked at a lower dose) and efficacious (i.e. had a larger total effect) | degree of overload (the gradient) ([2]; A61603 vs vehicle group after TAC): the same in both groups | adaptive proteins (myosin or MF20 and beta-myosin or bMHC) ([2]; TAC): more adaptive proteins | collagen fibrosis (Col I) ([2]; TAC): less collagen fibrosis | heart weight normalized to body weight (HW/BW) ([2]; TAC): less abnormal enlargement | protection (ERK) ([2]; TAC): higher protection | fractional shortening ([2]; treatment started 2 weeks after TAC, low dose, vs vehicle): improved | heart ERK activation ([3]; 10 ng/kg/d, end of 1 week): increased | heart area (size) ([3]; 10 ng/kg/d, end of 1 week): increased | heart mRNAs ([3]; 10 ng/kg/d, end of 1 week): increased | BP effects in alpha-1A KO (AKO) ([3]; alpha-1A KO mice, subcutaneous infusion 1 week): absent | average BP ([3]; low dose, subcutaneous infusion 1 week, BP measured daily): no change
